Source: patent publication US20180263985A1, “MODULATORS OF TOLL-LIKE RECEPTORS FOR THE TREATMENT OF HIV” (Gilead Sciences, Inc., priority 2015, published 2018)

System: PBMC cultures from HIV-1 infected subjects on cART
Assay: Induced cytokines and chemokines in PBMC cultures, multiplexed xMAP Luminex, geometric mean values
Type: cell-based, human
Details: for GRO-α Fold / Granzyme B Fold / I-TAC Fold / IFN-α Fold / IFN-γ Fold / IL-1RA Fold / IL-1β Fold / IL-6 Fold / IL-8 Fold / IL-10 Fold / IL-18 Fold / IL-23 Fold / IP-10 Fold / MCP-1 Fold / MIP-1α Fold / MIP-1β Fold / MIP-3α Fold / MMP-1 Fold / TNF-α Fold / IL-12p70 Fold: day 2, 4 subjects
Procedure: To further characterize the immune modulatory effect of TLR8 agonists in cells from HIV-infected subjects, the production of secreted cytokines and chemokines was measured in PBMCs from 4 HIV-infected subjects on suppressive cART (anonymized participant IDs 180-183). PBMCs were purified, as described in Example 121, and immediately added to tissue culture plates pre-equilibrated at 37° C. with media containing DMSO (vehicle control) or with the TLR8 modulating compound Example 15 at concentrations ranging from 1.0 nM to 10.0 μM. On day 2 after treatment, cell-free culture supernatants were collected and frozen at −80 C for subsequent analysis. Frozen supernatants were thawed at room temperature, and the indicated cytokines and chemokines were quantified with a custom multiplexed xMAP Luminex® assay following the manufacturer's instructions (Thermo Fisher Scientific Inc., Grand Island, N.Y., custom-designed kit).
Data are expressed as geometric mean cytokine values (pg/ml) obtained from 4 subjects' PBMCs. Geometric mean fold-activation from three independent incubation samples for each condition. Fold (fold-activation) is calculated as a ratio of the concentration of cytokine detected in cell culture supernatants from agonist treated samples relative to DMSO treated samples

[1] = 1.0 nM to 10.0 μM, not induced >2-fold

CCCC[C@H](CO)Nc1nc(N)nc2cccnc12 [Example 15]
IFN-ω induction compared to DMSO control [1]: ≤ 2 fold
IL-2 induction compared to DMSO control [1]: ≤ 2 fold
IL-4 induction compared to DMSO control [1]: ≤ 2 fold
IL-5 induction compared to DMSO control [1]: ≤ 2 fold
IL-7 induction compared to DMSO control [1]: ≤ 2 fold
IL-15 induction compared to DMSO control [1]: ≤ 2 fold
IL-17A induction compared to DMSO control [1]: ≤ 2 fold
IL-21 induction compared to DMSO control [1]: ≤ 2 fold
IL-27 induction compared to DMSO control [1]: ≤ 2 fold
IL-29 induction compared to DMSO control [1]: ≤ 2 fold
GRO-α Fold (1 nM vs DMSO): 1 fold
Granzyme B Fold (1 nM vs DMSO): <1 fold
I-TAC Fold (1 nM vs DMSO): 2 fold
IFN-α Fold (1 nM vs DMSO): 2 fold
IFN-γ Fold (1 nM vs DMSO): 2 fold
IL-1RA Fold (1 nM vs DMSO): 3 fold
IL-1β Fold (1 nM vs DMSO): 2 fold
IL-6 Fold (1 nM vs DMSO): 1 fold
IL-8 Fold (1 nM vs DMSO): 2 fold
IL-10 Fold (1 nM vs DMSO): 1 fold
IL-18 Fold (1 nM vs DMSO): 1 fold
IL-23 Fold (1 nM vs DMSO): 2 fold
IP-10 Fold (1 nM vs DMSO): 3 fold
MCP-1 Fold (1 nM vs DMSO): 3 fold
MIP-1α Fold (1 nM vs DMSO): 5 fold
MIP-1β Fold (1 nM vs DMSO): 2 fold
MIP-3α Fold (1 nM vs DMSO): 1 fold
MMP-1 Fold (1 nM vs DMSO): 1 fold
GRO-α Fold (10 nM vs DMSO): 1 fold
Granzyme B Fold (10 nM vs DMSO): <1 fold
I-TAC Fold (10 nM vs DMSO): 1 fold
IFN-α Fold (10 nM vs DMSO): 2 fold
IFN-γ Fold (10 nM vs DMSO): 2 fold
IL-1RA Fold (10 nM vs DMSO): 1 fold
IL-1β Fold (10 nM vs DMSO): 1 fold
IL-6 Fold (10 nM vs DMSO): 1 fold
IL-8 Fold (10 nM vs DMSO): 1 fold
IL-10 Fold (10 nM vs DMSO): 1 fold
IL-18 Fold (10 nM vs DMSO): 2 fold
IL-23 Fold (10 nM vs DMSO): 1 fold
IP-10 Fold (10 nM vs DMSO): 1 fold
MCP-1 Fold (10 nM vs DMSO): 1 fold
MIP-1α Fold (10 nM vs DMSO): 1 fold
MIP-1β Fold (10 nM vs DMSO): 1 fold
MIP-3α Fold (10 nM vs DMSO): 1 fold
MMP-1 Fold (10 nM vs DMSO): 1 fold
TNF-α Fold (10 nM vs DMSO): 2 fold
GRO-α Fold (100 nM vs DMSO): 20 fold
Granzyme B Fold (100 nM vs DMSO): <1 fold
I-TAC Fold (100 nM vs DMSO): 1 fold
IFN-α Fold (100 nM vs DMSO): 1 fold
IFN-γ Fold (100 nM vs DMSO): 2 fold
IL-1RA Fold (100 nM vs DMSO): 12 fold
IL-1β Fold (100 nM vs DMSO): 45 fold
IL-6 Fold (100 nM vs DMSO): 57 fold
IL-8 Fold (100 nM vs DMSO): 8 fold
IL-10 Fold (100 nM vs DMSO): 145 fold
IL-12p70 Fold (100 nM vs DMSO): 2 fold
IL-18 Fold (100 nM vs DMSO): 1 fold
IL-23 Fold (100 nM vs DMSO): 2 fold
IP-10 Fold (100 nM vs DMSO): 1 fold
MCP-1 Fold (100 nM vs DMSO): 33 fold
MIP-1α Fold (100 nM vs DMSO): 3 fold
MIP-1β Fold (100 nM vs DMSO): 1 fold
MIP-3α Fold (100 nM vs DMSO): 1 fold
MMP-1 Fold (100 nM vs DMSO): 2 fold
TNF-α Fold (100 nM vs DMSO): 6 fold
GRO-α Fold (1000 nM vs DMSO): 18 fold
Granzyme B Fold (1000 nM vs DMSO): 4 fold
I-TAC Fold (1000 nM vs DMSO): 2 fold
IFN-α Fold (1000 nM vs DMSO): 3 fold
IFN-γ Fold (1000 nM vs DMSO): 228 fold
IL-1RA Fold (1000 nM vs DMSO): 46 fold
IL-1β Fold (1000 nM vs DMSO): 1578 fold
IL-6 Fold (1000 nM vs DMSO): 290 fold
IL-8 Fold (1000 nM vs DMSO): 5 fold
IL-10 Fold (1000 nM vs DMSO): 219 fold
IL-12p70 Fold (1000 nM vs DMSO): 175 fold
IL-18 Fold (1000 nM vs DMSO): 11 fold
IL-23 Fold (1000 nM vs DMSO): 8 fold
IP-10 Fold (1000 nM vs DMSO): 3 fold
MCP-1 Fold (1000 nM vs DMSO): 22 fold
MIP-1α Fold (1000 nM vs DMSO): 374 fold
MIP-1β Fold (1000 nM vs DMSO): 340 fold
MIP-3α Fold (1000 nM vs DMSO): 42 fold
MMP-1 Fold (1000 nM vs DMSO): 3 fold
TNF-α Fold (1000 nM vs DMSO): 1661 fold
GRO-α Fold (3000 nM vs DMSO): 18 fold
Granzyme B Fold (3000 nM vs DMSO): 4 fold
I-TAC Fold (3000 nM vs DMSO): 2 fold
IFN-α Fold (3000 nM vs DMSO): 3 fold
IFN-γ Fold (3000 nM vs DMSO): 143 fold
IL-1RA Fold (3000 nM vs DMSO): 25 fold
IL-1β Fold (3000 nM vs DMSO): 1767 fold
IL-6 Fold (3000 nM vs DMSO): 195 fold
IL-8 Fold (3000 nM vs DMSO): 4 fold
IL-10 Fold (3000 nM vs DMSO): 279 fold
IL-12p70 Fold (3000 nM vs DMSO): 127 fold
IL-18 Fold (3000 nM vs DMSO): 18 fold
IL-23 Fold (3000 nM vs DMSO): 19 fold
IP-10 Fold (3000 nM vs DMSO): 3 fold
MCP-1 Fold (3000 nM vs DMSO): 25 fold
MIP-1α Fold (3000 nM vs DMSO): 421 fold
MIP-1β Fold (3000 nM vs DMSO): 240 fold
MIP-3α Fold (3000 nM vs DMSO): 82 fold
MMP-1 Fold (3000 nM vs DMSO): 3 fold
TNF-α Fold (3000 nM vs DMSO): 3051 fold
GRO-α Fold (10000 nM vs DMSO): 19 fold
Granzyme B Fold (10000 nM vs DMSO): 3 fold
I-TAC Fold (10000 nM vs DMSO): 1 fold
IFN-α Fold (10000 nM vs DMSO): 2 fold
IFN-γ Fold (10000 nM vs DMSO): 59 fold
IL-1RA Fold (10000 nM vs DMSO): 25 fold
IL-1β Fold (10000 nM vs DMSO): 2204 fold
IL-6 Fold (10000 nM vs DMSO): 241 fold
IL-8 Fold (10000 nM vs DMSO): 4 fold
IL-10 Fold (10000 nM vs DMSO): 304 fold
IL-12p70 Fold (10000 nM vs DMSO): 38 fold
IL-18 Fold (10000 nM vs DMSO): 13 fold
IL-23 Fold (10000 nM vs DMSO): 16 fold
IP-10 Fold (10000 nM vs DMSO): 2 fold
MCP-1 Fold (10000 nM vs DMSO): 27 fold
MIP-1α Fold (10000 nM vs DMSO): 487 fold
MIP-1β Fold (10000 nM vs DMSO): 196 fold
MIP-3α Fold (10000 nM vs DMSO): 65 fold
MMP-1 Fold (10000 nM vs DMSO): 8 fold
TNF-α Fold (10000 nM vs DMSO): 1096 fold
